Experimental data taken from article PMC12510601, “Transcriptomic analysis reveals that pyruvate kinase potentially plays a key role in the differentiation of Spirometra mansoni proglottids by regulating the glycolysis pathway” (PLOS Neglected Tropical Diseases, 2025).

Test system: rSmPK1 (recombinant SmPK1)
Experiment: […],4-dinitrophenylhydrazine pyruvate assay, Michaelis-Menten / Lineweaver-Burk
Assay type: biochemical, Spirometra mansoni
Conditions: pH 8.0, 37 °C

Compound | Km (varied ADP with PEP) | Km (varied PEP with ADP)
Nc1ncnc2c1ncn2[C@@H]1O[C@H](COP(=O)(O)OP(=O)(O)O)[C@@H](O)[C@H]1O [ADP] | 540 µM | –
C=C(OP(=O)(O)O)C(=O)O [PEP] | – | 1270 µM
